Assay results as given in doi:10.1101/2023.07.11.548539v1, “A side-by-side comparison of peptide-delivered antisense antibiotics employing different nucleotide mimics” (bioRxiv, 2023).
Oligonucleotides are written 5' to 3', each unit as a sugar letter and its base; * is a phosphorothioate linkage, no mark a phosphodiester; rarer units and linkages stand in square brackets, end groups in braces. Plain capitals give the bases only. d = 2'-deoxy (DNA)

Experiments:
[1] = tested on: Cy5 5'-labelled RNA, nucleotides -20 to +20 of acpP (target mRNA); assay: Microscale thermophoresis (MST) binding affinity; set-up: species or system Salmonella enterica; key to Binding affinity (in vitro): -: Effect strength is represented by additional (+) signs.; Effect strength is represented by additional (+) signs.; ++: Effect strength is represented by additional (+) signs.; +++: Effect strength is represented by additional (+) signs; conditions: unconjugated ASO; for Binding affinity (in vitro): summary grade
Description: For each binding experiment, Cy5 5’-labelled RNA (as described above) was diluted to 10 nM in Buffer A (50 mM Tris-HCl pH 7.6, 250 mM KCl, 5 mM MgCl2, 1 mM DTT, 5% glycerol supplemented with 0.05% Tween 20). A series of 16 tubes with different ASO dilutions (500 nM to 0.015 nM) were prepared in Buffer A. For measurements, each ASO dilution was mixed with one volume of labeled RNA, which led to a final concentration of 5.0 nM labeled RNA and 250 nM to 0.007 nM of ASOs. The reaction was mixed by pipetting and incubated for 30 min at RT in the dark. Capillary forces were used to load the samples into Monolith NT.115 Premium Capillaries; measurements were performed using a Monolith Pico instrument (NanoTemper Technologies Gmbh, Munich, Germany) at an ambient temperature of 25 °C. Instrument parameters were adjusted to 5% LED power, medium MST power, and MST on-time of 2.5 s. An initial fluorescence scan was performed across the capillaries to determine sample quality, which was followed by 16 thermophoresis measurements. […] Data of two independent measurements were analyzed for the ΔFnorm value determined by the MO Affinity Analysis software (NanoTemper Technologies Gmbh, Munich, Germany). The fitting for EC50 values was done using the Hill equation within the MO Affinity Analysis software. Data are presented as the mean EC50 values of two independent experiments.

Salmonella periplasm = assay: MALDI-TOF analysis of ASO-peptide conjugate uptake; assay type: cell-based; set-up: key: -: Effect strength is represented by additional (+) signs.; Effect strength is represented by additional (+) signs.; ++: Effect strength is represented by additional (+) signs.; +++: Effect strength is represented by additional (+) signs; conditions: summary grade; ASO conjugated to the carrier peptide
Description: The experiments were performed by modifying previously published protocols ([29]). From an overnight culture of Salmonella, a second culture was inoculated (1:100) and grown to OD600 of 0.5 (corresponding to ∼2×10^8 cfu/mL). These bacterial cells was washed twice in MHB and resuspended in 95 µl of MHB with an additional incubation at 37°C for 5-10 min. Sterile ASO-peptide conjugates were prepared at concentrations of 200 µM. 5 µl of the 200 µM working solutions were added to 95 µl of bacteria in culture media, leading to a final concentration of the compounds of 10 µM. 5 µl of H2O was added as a negative control. The tubes were incubated at 37°C for 15 min with shaking at 300 rpm. Subsequently, they were centrifuged at 8,000 x g for 5 min at 4 °C. The supernatant was aspirated and the pellet was washed with 0.01 M Tris-HCl before being resuspended in 200 µl of 0.01M Tris-HCl containing 0.5 M Sucrose, 150 µg/ml lysozyme, 10 mM EDTA and incubated at 37 °C overnight. These tubes were then centrifuged at 2,000 x g at 4°C for 10 min. The supernatant obtained represents the periplasm. The pellet containing spheroplasts was gently washed with 0.01 M Tris-HCl containing 0.5 M Sucrose and resuspended in 20 ml of B-PER™ Bacterial Protein Extraction Reagent (Thermo Fischer Scientific) for 1 h. After this, the spheroplasts were subjected to sonication (20kHz for 2×10 s), incubated on ice for 5 min and centrifuged at 20,000 x g for 30 min at 4 °C. The supernatant represents the cytoplasm. Both the periplasm and cytoplasm fragments were then mixed with 2, 6-Dihydroxyacetophenone (DHAP) in ACN 1:1, spotted on a MALDI plate and analyzed for MALDI-TOF-MS in a Bruker DaltonicsUltrafleXtreme Instrument. The experiment was performed two times and data of one representative experiment are shown.

Substance | Binding affinity (in vitro) [1] | Binding affinity (EC50, nM) ([1]; MST, 5.0 nM labelled RNA, ASO 250 nM to 0.007 nM, 30 min RT, 25 °C, Hill fit, mean ± SD of two independent experiments) | Uptake inside bacteria (MS) (Salmonella periplasm)
DNA-PTO: 10mer phosphorothioate-modified DNA antisense oligomer, sequence CTCATACTCT, targeting acpP (antisense dC*dT*dC*dA*dT*dA*dC*dT*dC*dT) | - | Could not be determined | -
LNA: 10mer 2'-4'-locked RNA antisense oligomer, sequence CTCATACTCT, targeting acpP (all LNA, backbone and methylation of C not given here) | +++ |  | -
PMO: 10mer phosphorodiamidate morpholino antisense oligomer, sequence CTCATACTCT, targeting acpP (all phosphorodiamidate morpholino (PMO)) | ++ |  | 
PNA: 10mer peptide nucleic acid antisense oligomer, sequence CTCATACTCT, targeting acpP (all peptide nucleic acid (PNA)) | +++ |  | 
RNA-F: 10mer 2'-fluorinated RNA antisense oligomer, sequence CTCATACTCT, targeting acpP (all 2'-fluoro, backbone and T or U not given here) | + |  | -
RNA-MOE: 10mer 2'-methoxyethylated RNA antisense oligomer, sequence CTCATACTCT, targeting acpP (all 2'-MOE, backbone and methylation of C not given here) | +++ |  | -
RNA-OMe: 10mer 2'-methylated RNA antisense oligomer, sequence CTCATACTCT, targeting acpP (all 2'-O-methyl, backbone and T or U not given here) | ++ |  | -
